Measured values published in US20230107642A1 (Erasca, Inc., priority 2020, published 2023).

Target: T1, K-Ras G12C (Homo sapiens, UniProt P01116, G12C)
T1 construct: This protein contained 188 amino acids in total, including an N-terminal 6-Histidine tag; made in house; host or cells: E. coli BL21
Assay: CAF assay (% CAF; method in Example 7, not in this part)
Format: binding
Conditions: for % CAF @ 10 μM, 1 h: Table 4; for % CAF @ 10 uM, 1h: 10 uM compound, 1 h incubation

## C=CC(=O)N1CCN(c2nc(=O)n3c4c(c(-c5c(F)cc(F)cc5F)c(Cl)cc24)SC[C@H]3CCCN2C[C@@H]3C[C@H]2CO3)[C@@H](C)C1 [Example 339, (R)-3-(3-((1S,4S)-2-oxa-5-azabicyclo[2.2.1]heptan-5-yl)propyl)-7-((S)-4-acryloyl-2-methylpiperazin-1-yl)-9-chloro-10-(2,4,6-trifluorophenyl)-2H-[1,4]thiazino[2,3,4-ij]quinazolin-5(3H)-one]
  % CAF @ 10 μM, 1 h: 96.6%

## C=CC(=O)N1CCN(c2nc(=O)n3c4c(c(-c5c(F)cc(F)cc5F)c(Cl)cc24)SC[C@@H]3CCCN2C[C@@H]3C[C@H]2CO3)[C@@H](C)C1 [Example 340, (S)-3-(3-((1S,4S)-2-oxa-5-azabicyclo[2.2.1]heptan-5-yl)propyl)-7-((S)-4-acryloyl-2-methylpiperazin-1-yl)-9-chloro-10-(2,4,6-trifluorophenyl)-2H-[1,4]thiazino[2,3,4-ij]quinazolin-5(3H)-one]
  % CAF @ 10 μM, 1 h: 96.9%

## C=CC(=O)N1CCN(c2nc(=O)n3c4c(c(-c5ccc(F)cc5F)c(Cl)cc24)SC[C@H]3CCCN2C[C@@H]3C[C@H]2CO3)[C@@H](C)C1 [Example 341, (3R)-3-(3-((1S,4S)-2-oxa-5-azabicyclo[2.2.1]heptan-5-yl)propyl)-7-((S)-4-acryloyl-2-methylpiperazin-1-yl)-9-chloro-10-(2,4-difluorophenyl)-2H-[1,4]thiazino[2,3,4-ij]quinazolin-5(3H)-one]
  % CAF @ 10 μM, 1 h: 96.5%

## C=CC(=O)N1CCN(c2nc(=O)n3c4c(c(-c5ccc(F)cc5F)c(Cl)cc24)SC[C@@H]3CCCN2C[C@@H]3C[C@H]2CO3)[C@@H](C)C1 [Example 342, (3S)-3-(3-((1S,4S)-2-oxa-5-azabicyclo[2.2.1]heptan-5-yl)propyl)-7-((S)-4-acryloyl-2-methylpiperazin-1-yl)-9-chloro-10-(2,4-difluorophenyl)-2H-[1,4]thiazino[2,3,4-ij]quinazolin-5(3H)-one]
  % CAF @ 10 μM, 1 h: 94.7%

## C=CC(=O)N1CCN(c2nc(=O)n3c4c(c(-c5c(F)cc(F)cc5F)c(Cl)cc24)SC[C@@H]3CC2CCN(C)CC2)[C@@H](C)C1 [Example 343, (S)-7-((S)-4-acryloyl-2-methylpiperazin-1-yl)-9-chloro-3-((1-methylpiperidin-4-yl)methyl)-10-(2,4,6-trifluorophenyl)-2H-[1,4]thiazino[2,3,4-ij]quinazolin-5(3H)-one]
  % CAF @ 10 μM, 1 h: 96.7%

## C=CC(=O)N1CCN(c2nc(=O)n3c4c(c(-c5c(F)cc(F)cc5F)c(Cl)cc24)SC[C@H]3CC2CCN(C)CC2)[C@@H](C)C1 [Example 344, (R)-7-((S)-4-acryloyl-2-methylpiperazin-1-yl)-9-chloro-3-((1-methylpiperidin-4-yl)methyl)-10-(2,4,6-trifluorophenyl)-2H-[1,4]thiazino[2,3,4-ij]quinazolin-5(3H)-one]
  % CAF @ 10 μM, 1 h: 94.8%

## C=CC(=O)N1CCN(c2nc(=O)n3c4c(c(-c5ccc(F)cc5F)c(Cl)cc24)SC[C@H]3CC2CCN(C)CC2)[C@@H](C)C1 [Example 345, (3R)-7-((S)-4-acryloyl-2-methylpiperazin-1-yl)-9-chloro-10-(2,4-difluorophenyl)-3-((1-methylpiperidin-4-yl)methyl)-2H-[1,4]thiazino[2,3,4-ij]quinazolin-5(3H)-one]
  % CAF @ 10 μM, 1 h: 82.4%

## C=CC(=O)N1CCN(c2nc(=O)n3c4c(c(-c5ccc(F)cc5F)c(Cl)cc24)SC[C@H]3CN2CCN(CC)CC2)[C@@H](C)C1 [Example 346, (3R)-7-((S)-4-acryloyl-2-methylpiperazin-1-yl)-9-chloro-10-(2,4-difluorophenyl)-3-((4-ethylpiperazin-1-yl)methyl)-2H-[1,4]thiazino[2,3,4-ij]quinazolin-5(3H)-one]
  % CAF @ 10 μM, 1 h: 79.3%

## C=CC(=O)N1CCN(c2nc(=O)n3c4c(c(-c5ccc(F)cc5F)c(Cl)cc24)SC[C@H]3CN2CCN(CC(F)F)CC2)[C@@H](C)C1 [Example 347, (3R)-7-((S)-4-acryloyl-2-methylpiperazin-1-yl)-9-chloro-3-((4-(2,2-difluoroethyl)piperazin-1-yl)methyl)-10-(2,4-difluorophenyl)-2H-[1,4]thiazino[2,3,4-ij]quinazolin-5(3H)-one]
  % CAF @ 10 μM, 1 h: 82.5%

## C=CC(=O)N1CCN(c2nc(=O)n3c4c(c(-c5ccc(F)cc5F)c(Cl)cc24)SC[C@H]3CC2CCN(CC(F)F)CC2)[C@@H](C)C1 [Example 348, (3R)-7-((S)-4-acryloyl-2-methylpiperazin-1-yl)-9-chloro-3-((1-(2,2-difluoroethyl)piperidin-4-yl)methyl)-10-(2,4-difluorophenyl)-2H-[1,4]thiazino[2,3,4-ij]quinazolin-5(3H)-one]
  % CAF @ 10 μM, 1 h: 92%

## C=CC(=O)N1CCN(c2nc(=O)n3c4c(c(-c5ccc(F)cc5)c(Cl)cc24)SC[C@H]3CC2CCN(CC(F)F)CC2)[C@@H](C)C1 [Example 349, (R)-7-((S)-4-acryloyl-2-methylpiperazin-1-yl)-9-chloro-3-((1-(2,2-difluoroethyl)piperidin-4-yl)methyl)-10-(4-fluorophenyl)-2H-[1,4]thiazino[2,3,4-ij]quinazolin-5(3H)-one]
  % CAF @ 10 μM, 1 h: 94%

## C=CC(=O)N1CCN(c2nc(=O)n3c4c(c(-c5ccc(F)cc5F)c(C(F)(F)F)cc24)SC[C@@H]3CN2CCN(CC)CC2)[C@@H](C)C1 [Example 350, (3S)-7-((S)-4-acryloyl-2-methylpiperazin-1-yl)-10-(2,4-difluorophenyl)-3-((4-ethylpiperazin-1-yl)methyl)-9-(trifluoromethyl)-2H-[1,4]thiazino[2,3,4-ij]quinazolin-5(3H)-one]
  % CAF @ 10 μM, 1 h: 95%

## C=CC(=O)N1CCN(c2nc(=O)n3c4c(c(-c5c(F)cc(F)cc5F)c(Cl)cc24)SC[C@@H]3CN2CCN(CC)CC2)[C@@H](C)C1 [Example 351, (S)-7-((S)-4-acryloyl-2-methylpiperazin-1-yl)-9-chloro-3-((4-ethylpiperazin-1-yl)methyl)-10-(2,4,6-trifluorophenyl)-2H-[1,4]thiazino[2,3,4-ij]quinazolin-5(3H)-one]
  % CAF @ 10 μM, 1 h: 74%

## C=CC(=O)N1CCN(c2nc(=O)n3c4c(c(-c5ccc(F)cc5F)c(C(F)(F)F)cc24)SC[C@@H]3CN2CCN(C3COC3)CC2)[C@@H](C)C1 [Example 352, (3S)-7-((S)-4-acryloyl-2-methylpiperazin-1-yl)-10-(2,4-difluorophenyl)-3-((4-(oxetan-3-yl)piperazin-1-yl)methyl)-9-(trifluoromethyl)-2H-[1,4]thiazino[2,3,4-ij]quinazolin-5(3H)-one]
  % CAF @ 10 μM, 1 h: 96%

## C=CC(=O)N1CCN(c2nc(=O)n3c4c(c(-c5ccc(F)cc5F)c(C(F)(F)F)cc24)SC[C@@H]3CC2CCN(CC)CC2)[C@@H](C)C1 [Example 353, (3S)-7-((S)-4-acryloyl-2-methylpiperazin-1-yl)-10-(2,4-difluorophenyl)-3-((1-ethylpiperidin-4-yl)methyl)-9-(trifluoromethyl)-2H-[1,4]thiazino[2,3,4-ij]quinazolin-5(3H)-one]
  % CAF @ 10 μM, 1 h: 97%

## C=CC(=O)N1CCN(c2nc(=O)n3c4c(c(-c5ccc(F)cc5F)c(Cl)cc24)SC[C@@H]3CN2CCN(CC)CC2)[C@@H](C)C1 [Example 354, (3S)-7-((S)-4-acryloyl-2-methylpiperazin-1-yl)-9-chloro-10-(2,4-difluorophenyl)-3-((4-ethylpiperazin-1-yl)methyl)-2H-[1,4]thiazino[2,3,4-ij]quinazolin-5(3H)-one]
  % CAF @ 10 μM, 1 h: 96%

## C=CC(=O)N1CCN(c2nc(=O)n3c4c(c(-c5ccc(F)cc5F)c(Cl)cc24)SC[C@@H]3CN2CCN(C3COC3)CC2)[C@@H](C)C1 [Example 355, (3S)-7-((S)-4-acryloyl-2-methylpiperazin-1-yl)-9-chloro-10-(2,4-difluorophenyl)-3-((4-(oxetan-3-yl)piperazin-1-yl)methyl)-2H-[1,4]thiazino[2,3,4-ij]quinazolin-5(3H)-one]
  % CAF @ 10 μM, 1 h: 96%

## C=CC(=O)N1CCN(c2nc(=O)n3c4c(c(-c5ccc(F)cc5F)c(Cl)cc24)SC[C@@H]3CN2CCN(CC(F)F)CC2)[C@@H](C)C1 [Example 356, (3S)-7-((S)-4-acryloyl-2-methylpiperazin-1-yl)-9-chloro-3-((4-(2,2-difluoroethyl)piperazin-1-yl)methyl)-10-(2,4-difluorophenyl)-2H-[1,4]thiazino[2,3,4-ij]quinazolin-5(3H)-one]
  % CAF @ 10 μM, 1 h: 95%

## C=CC(=O)N1CCN(c2nc(=O)n3c4c(c(-c5c(F)ccc6[nH]ncc56)c(Cl)cc24)SCC3)[C@@H](C)C1 [Example 408, 7-((S)-4-acryloyl-2-methylpiperazin-1-yl)-9-chloro-10-(5-fluoro-1H-indazol-4-yl)-2,3-dihydro-5H-[1,4]thiazino[2,3,4-ij]quinazolin-5-one]
  % CAF @ 10 uM, 1h: 39.3%

## C=CC(=O)N1CCN(c2nc(=O)n3c4c(c(-c5cc(F)c(F)cc5F)c(Cl)cc24)SCC3)[C@@H](C)C1 [Example 409, 7-((S)-4-acryloyl-2-methylpiperazin-1-yl)-9-chloro-10-(2,4,5-trifluorophenyl)-2,3-dihydro-5H-[1,4]thiazino[2,3,4-ij]quinazolin-5-one]
  % CAF @ 10 uM, 1h: 94%

## C=CC(=O)N1CCN(c2nc(=O)n3c4c(c(-c5ccc(F)cc5)c(Cl)cc24)SC[C@@H]3CN2CCN(CC)CC2)[C@@H](C)C1 [Example 410, (S)-7-((S)-4-acryloyl-2-methylpiperazin-1-yl)-9-chloro-3((4-ethylpiperazin-1-yl)methyl)-10-(4-fluorophenyl)-2H-[1,4]thiazino[2,3,4-ij]quinazolin-5(3H)-one]
  % CAF @ 10 uM, 1h: 83.9%

## C=CC(=O)N1CCN(c2nc(=O)n3c4c(c(-c5ccc(F)cc5F)c(Cl)cc24)SC[C@@H]3CN2CCN(C)CC2)[C@@H](C)C1 [Example 411, (3S)-7-((S)-4-acryloyl-2-methylpiperazin-1-yl)-9-chloro-10-(2,4-difluorophenyl)-3-((4-methylpiperazin-1-yl)methyl)-2H-[1,4]thiazino[2,3,4-ij]quinazolin-5(3H)-one]
  % CAF @ 10 uM, 1h: 93.3%
